Assay results from ChEMBL document CHEMBL1155749, “Five new polyoxygenated cholestane bisdesmosides from the bulbs of Galtonia candicans” (J Nat Prod, 2001).
Values after ≈ are worked out from the molar mass of the structure shown.

System: HL-60
Assay: Cytotoxicity against human HL60 cells after 72 hrs by MTT assay
Format: functional, cell-based
Details: HL-60, 72 h

Row | Structure (SMILES) | IC50 [µg/mL]
1 | CC(=O)O[C@@H]1[C@@H](O)[C@H](C)O[C@@H](O[C@H]2C[C@H]3[C@@H]4CC=C5C[C@@H](O[C@@H]6O[C@H](CO)[C@@H](O)[C@H](O)[C@H]6O)CC[C@]5(C)[C@H]4CC[C@]3(C)[C@H]2[C@H](C)[C@@H](O)CC=C(C)C)[C@@H]1O | 6.8 (≈ 8.87 µM)
2 | COc1cc([C@@H]2c3cc4c(cc3[C@@H](O[C@@H]3O[C@@H]5CO[C@@H](C)O[C@H]5[C@H](O)[C@H]3O)[C@H]3COC(=O)[C@H]23)OCO4)cc(OC)c1O [ETOPOSIDE] | 0.25 (≈ 0.425 µM)
